# ChEMBL document CHEMBL3991601, “The target landscape of clinical kinase drugs” (Science, 2017)
# Active and inactive are the calls of the source.
# Columns and labels:
# [1] = molecular target: Cyclin-dependent kinase 10 (Homo sapiens, UniProt Q15131)
# [2] = molecular target: T1, Tyrosine-protein kinase Mer (Homo sapiens, UniProt Q12866)
# T1 sequence (Q12866 whole entry): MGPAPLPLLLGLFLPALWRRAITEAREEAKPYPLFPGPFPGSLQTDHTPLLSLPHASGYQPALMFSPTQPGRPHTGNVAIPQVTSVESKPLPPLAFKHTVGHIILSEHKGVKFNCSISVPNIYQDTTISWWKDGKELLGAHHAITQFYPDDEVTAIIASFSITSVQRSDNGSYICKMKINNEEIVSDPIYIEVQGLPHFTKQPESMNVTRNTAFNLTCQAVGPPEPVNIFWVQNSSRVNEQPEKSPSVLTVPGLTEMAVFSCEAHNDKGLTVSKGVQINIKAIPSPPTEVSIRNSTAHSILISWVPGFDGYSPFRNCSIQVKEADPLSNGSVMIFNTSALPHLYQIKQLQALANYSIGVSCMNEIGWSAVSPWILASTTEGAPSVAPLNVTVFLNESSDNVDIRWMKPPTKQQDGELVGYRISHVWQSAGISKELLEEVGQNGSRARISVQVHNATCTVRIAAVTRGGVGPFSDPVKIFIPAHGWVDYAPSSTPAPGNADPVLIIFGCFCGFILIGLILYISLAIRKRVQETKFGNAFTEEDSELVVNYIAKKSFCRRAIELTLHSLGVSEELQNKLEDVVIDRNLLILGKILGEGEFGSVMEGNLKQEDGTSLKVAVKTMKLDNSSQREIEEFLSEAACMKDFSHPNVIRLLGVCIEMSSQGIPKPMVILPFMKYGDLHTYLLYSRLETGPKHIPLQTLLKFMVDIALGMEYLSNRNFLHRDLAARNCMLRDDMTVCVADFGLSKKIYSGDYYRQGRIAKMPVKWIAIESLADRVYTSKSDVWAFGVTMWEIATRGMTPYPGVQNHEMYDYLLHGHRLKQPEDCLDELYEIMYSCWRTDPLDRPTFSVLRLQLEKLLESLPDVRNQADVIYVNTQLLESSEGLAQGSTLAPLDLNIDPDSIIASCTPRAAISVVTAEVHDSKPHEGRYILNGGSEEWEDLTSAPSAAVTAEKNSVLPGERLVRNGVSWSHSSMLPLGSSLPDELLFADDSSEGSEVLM
# [3] = molecular target: Serine/threonine-protein kinase PLK1 (Homo sapiens, UniProt P53350)
# Chain of Serine/threonine-protein kinase PLK1 (P53350 whole entry): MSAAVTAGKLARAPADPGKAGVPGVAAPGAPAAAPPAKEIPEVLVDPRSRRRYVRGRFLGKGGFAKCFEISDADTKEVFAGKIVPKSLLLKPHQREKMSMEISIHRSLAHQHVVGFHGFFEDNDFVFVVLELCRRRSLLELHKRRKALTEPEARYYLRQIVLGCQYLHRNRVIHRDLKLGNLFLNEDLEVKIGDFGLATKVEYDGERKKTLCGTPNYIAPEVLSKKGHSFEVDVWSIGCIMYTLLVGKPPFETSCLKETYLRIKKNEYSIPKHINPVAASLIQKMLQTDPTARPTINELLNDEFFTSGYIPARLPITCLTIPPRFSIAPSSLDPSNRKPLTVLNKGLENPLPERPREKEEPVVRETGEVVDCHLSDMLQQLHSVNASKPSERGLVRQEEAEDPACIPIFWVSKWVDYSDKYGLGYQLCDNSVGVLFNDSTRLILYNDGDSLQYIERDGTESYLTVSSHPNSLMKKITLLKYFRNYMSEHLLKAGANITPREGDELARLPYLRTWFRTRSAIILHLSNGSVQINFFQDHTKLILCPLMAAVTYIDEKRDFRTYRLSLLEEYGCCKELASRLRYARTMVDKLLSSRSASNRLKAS
# [4] = molecular target: Misshapen-like kinase 1 (Homo sapiens, UniProt Q8N4C8)
# Chain of Misshapen-like kinase 1 (Q8N4C8 whole entry): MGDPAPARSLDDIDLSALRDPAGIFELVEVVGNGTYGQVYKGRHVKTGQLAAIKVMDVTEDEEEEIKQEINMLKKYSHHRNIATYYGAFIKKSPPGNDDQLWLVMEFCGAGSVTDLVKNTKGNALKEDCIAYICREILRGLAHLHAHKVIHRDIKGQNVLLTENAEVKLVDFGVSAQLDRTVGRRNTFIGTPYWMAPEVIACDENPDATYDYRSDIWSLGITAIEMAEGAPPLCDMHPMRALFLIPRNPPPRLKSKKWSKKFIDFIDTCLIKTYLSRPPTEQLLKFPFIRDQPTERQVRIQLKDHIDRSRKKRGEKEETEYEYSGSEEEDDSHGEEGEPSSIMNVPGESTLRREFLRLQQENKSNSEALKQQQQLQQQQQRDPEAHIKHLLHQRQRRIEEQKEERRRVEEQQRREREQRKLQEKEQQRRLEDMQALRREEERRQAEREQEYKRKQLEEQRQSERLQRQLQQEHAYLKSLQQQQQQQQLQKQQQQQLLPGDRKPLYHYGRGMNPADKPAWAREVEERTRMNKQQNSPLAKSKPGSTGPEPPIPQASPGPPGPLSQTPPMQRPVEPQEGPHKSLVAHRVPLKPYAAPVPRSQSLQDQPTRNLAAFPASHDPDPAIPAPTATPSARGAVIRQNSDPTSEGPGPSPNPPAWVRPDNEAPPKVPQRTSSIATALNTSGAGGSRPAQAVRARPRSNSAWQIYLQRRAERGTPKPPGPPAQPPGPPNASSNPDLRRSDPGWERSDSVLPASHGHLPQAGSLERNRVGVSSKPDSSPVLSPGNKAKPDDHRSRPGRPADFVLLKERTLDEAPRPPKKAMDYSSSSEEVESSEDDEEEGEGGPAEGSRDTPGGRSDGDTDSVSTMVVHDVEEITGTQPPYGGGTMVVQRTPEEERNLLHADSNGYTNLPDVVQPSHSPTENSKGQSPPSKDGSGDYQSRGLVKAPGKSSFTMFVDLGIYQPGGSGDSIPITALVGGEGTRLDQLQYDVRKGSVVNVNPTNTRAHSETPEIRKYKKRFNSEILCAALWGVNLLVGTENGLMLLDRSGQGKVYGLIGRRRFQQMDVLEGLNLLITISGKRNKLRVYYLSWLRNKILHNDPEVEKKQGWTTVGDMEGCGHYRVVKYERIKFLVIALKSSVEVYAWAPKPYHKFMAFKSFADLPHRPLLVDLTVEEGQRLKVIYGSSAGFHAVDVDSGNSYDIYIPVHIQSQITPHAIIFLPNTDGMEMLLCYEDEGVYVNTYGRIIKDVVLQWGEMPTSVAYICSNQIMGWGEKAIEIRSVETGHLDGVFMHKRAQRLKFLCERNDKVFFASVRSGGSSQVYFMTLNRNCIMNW
# [5] = molecular target: Glycogen synthase kinase-3 beta (Homo sapiens, UniProt P49841)
# Chain of Glycogen synthase kinase-3 beta (P49841 whole entry): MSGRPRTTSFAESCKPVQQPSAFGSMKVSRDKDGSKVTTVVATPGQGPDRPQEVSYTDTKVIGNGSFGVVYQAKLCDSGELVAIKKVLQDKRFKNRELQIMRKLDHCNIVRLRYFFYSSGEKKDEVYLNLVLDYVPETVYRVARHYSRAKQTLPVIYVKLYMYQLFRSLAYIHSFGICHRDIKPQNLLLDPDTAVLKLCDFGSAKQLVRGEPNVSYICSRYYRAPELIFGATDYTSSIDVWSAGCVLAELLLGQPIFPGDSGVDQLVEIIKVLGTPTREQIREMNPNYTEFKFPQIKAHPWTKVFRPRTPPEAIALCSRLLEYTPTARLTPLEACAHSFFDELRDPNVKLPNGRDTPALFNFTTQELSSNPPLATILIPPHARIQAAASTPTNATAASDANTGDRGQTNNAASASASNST
# [6] = molecular target: T2, Ephrin type-A receptor 1 (Homo sapiens, UniProt P21709)
# T2 sequence (P21709 whole entry): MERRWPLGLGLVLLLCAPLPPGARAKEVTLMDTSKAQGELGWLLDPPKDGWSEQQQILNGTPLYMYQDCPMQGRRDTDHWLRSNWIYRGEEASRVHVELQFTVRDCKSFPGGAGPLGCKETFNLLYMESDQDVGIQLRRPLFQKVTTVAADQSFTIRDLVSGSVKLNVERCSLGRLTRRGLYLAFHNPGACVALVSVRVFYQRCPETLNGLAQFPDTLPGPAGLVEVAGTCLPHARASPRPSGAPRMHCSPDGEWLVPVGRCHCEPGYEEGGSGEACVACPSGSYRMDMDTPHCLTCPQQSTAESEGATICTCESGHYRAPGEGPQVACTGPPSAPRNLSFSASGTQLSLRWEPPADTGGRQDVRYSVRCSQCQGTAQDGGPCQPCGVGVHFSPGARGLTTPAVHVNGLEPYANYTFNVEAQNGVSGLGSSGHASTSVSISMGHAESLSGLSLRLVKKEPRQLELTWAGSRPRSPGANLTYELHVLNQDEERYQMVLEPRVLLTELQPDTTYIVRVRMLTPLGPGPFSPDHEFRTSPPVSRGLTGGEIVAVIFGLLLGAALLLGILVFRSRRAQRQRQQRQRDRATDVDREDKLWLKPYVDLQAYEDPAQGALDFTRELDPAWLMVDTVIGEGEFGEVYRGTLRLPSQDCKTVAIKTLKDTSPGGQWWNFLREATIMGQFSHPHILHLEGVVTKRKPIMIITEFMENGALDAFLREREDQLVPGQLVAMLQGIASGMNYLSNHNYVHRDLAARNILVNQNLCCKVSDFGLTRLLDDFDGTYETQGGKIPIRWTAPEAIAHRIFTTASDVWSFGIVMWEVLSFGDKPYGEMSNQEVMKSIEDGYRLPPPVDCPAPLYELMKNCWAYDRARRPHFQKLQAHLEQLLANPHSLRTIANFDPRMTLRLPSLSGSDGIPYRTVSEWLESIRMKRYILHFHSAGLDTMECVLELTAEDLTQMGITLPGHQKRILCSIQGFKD
# [7] = molecular target: T3, MAP/microtubule affinity-regulating kinase 4 (Homo sapiens, UniProt Q96L34)
# T3 sequence (Q96L34 whole entry): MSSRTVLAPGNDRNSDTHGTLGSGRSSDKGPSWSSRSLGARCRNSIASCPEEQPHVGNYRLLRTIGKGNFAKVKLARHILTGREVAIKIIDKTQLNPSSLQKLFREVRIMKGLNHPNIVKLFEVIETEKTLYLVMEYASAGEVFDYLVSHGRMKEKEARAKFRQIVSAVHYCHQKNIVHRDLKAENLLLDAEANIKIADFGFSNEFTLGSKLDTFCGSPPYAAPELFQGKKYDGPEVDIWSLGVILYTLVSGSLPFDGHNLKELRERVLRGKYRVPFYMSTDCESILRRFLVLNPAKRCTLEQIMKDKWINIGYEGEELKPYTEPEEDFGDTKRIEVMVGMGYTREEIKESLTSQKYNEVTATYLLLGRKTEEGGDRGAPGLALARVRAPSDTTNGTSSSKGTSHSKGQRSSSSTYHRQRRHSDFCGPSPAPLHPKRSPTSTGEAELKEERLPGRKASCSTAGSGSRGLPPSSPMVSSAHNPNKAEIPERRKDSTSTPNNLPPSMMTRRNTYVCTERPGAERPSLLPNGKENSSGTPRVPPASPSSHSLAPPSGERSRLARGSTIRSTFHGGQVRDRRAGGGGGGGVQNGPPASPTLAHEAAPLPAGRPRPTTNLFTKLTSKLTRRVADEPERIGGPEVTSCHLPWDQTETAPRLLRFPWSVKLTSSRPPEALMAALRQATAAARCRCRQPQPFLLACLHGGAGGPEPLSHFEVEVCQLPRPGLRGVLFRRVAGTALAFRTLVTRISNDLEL
# [8] = molecular target: Serine/threonine-protein kinase 38 (Homo sapiens, UniProt Q15208)
# Chain of Serine/threonine-protein kinase 38 (Q15208 whole entry): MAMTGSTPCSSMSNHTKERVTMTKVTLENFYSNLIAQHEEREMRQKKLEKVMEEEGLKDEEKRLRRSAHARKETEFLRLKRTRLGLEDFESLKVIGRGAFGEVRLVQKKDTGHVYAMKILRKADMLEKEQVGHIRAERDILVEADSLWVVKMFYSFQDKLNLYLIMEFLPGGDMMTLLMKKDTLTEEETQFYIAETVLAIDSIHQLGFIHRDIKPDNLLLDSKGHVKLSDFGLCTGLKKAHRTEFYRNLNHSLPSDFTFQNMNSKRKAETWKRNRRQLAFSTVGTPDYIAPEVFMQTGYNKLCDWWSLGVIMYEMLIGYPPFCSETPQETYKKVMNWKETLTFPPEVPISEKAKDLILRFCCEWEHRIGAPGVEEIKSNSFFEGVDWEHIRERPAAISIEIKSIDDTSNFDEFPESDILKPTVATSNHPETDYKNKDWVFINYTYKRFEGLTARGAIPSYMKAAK
# Also: in the data inactive means no Kd found up to 30 µM.
# Chain of Cyclin-dependent kinase 10 (Q15131 whole entry): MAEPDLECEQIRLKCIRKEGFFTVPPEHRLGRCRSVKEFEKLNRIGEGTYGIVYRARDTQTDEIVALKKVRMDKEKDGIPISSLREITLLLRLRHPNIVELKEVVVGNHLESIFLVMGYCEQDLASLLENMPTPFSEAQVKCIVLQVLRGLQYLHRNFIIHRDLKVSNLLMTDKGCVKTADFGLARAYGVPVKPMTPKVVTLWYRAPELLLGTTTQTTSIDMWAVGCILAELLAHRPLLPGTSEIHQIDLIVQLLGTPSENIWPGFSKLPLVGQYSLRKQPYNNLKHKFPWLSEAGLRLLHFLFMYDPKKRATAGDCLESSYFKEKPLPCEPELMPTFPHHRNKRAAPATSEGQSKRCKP
Compound,Kd [2],Kd [3],Kd [4],Kd [5],Kd [6],Kd [7],Kd [8],Kd [1]
Cn1cc(-c2[nH]c3cc(NC(=O)[C@H](N)C4CCCCC4)cc4c3c2C=NNC4=O)cn1,0.018 µM,> 30 µM (inactive),0.02 µM,> 30 µM (inactive),> 30 µM (inactive),0.036 µM,,> 30 µM (inactive)
CN(c1ncccc1CNc1nc(Nc2ccc3c(c2)CC(=O)N3)ncc1C(F)(F)F)S(C)(=O)=O [PF-00562271],,,,,> 30 µM (inactive),,,> 30 µM (inactive)
C[C@]1(O)C[C@@H](c2nc(-c3ccc4ccc(-c5ccccc5)nc4c3)c3c(N)nccn32)C1 [LINSITINIB],> 30 µM (inactive),,> 30 µM (inactive),,,> 30 µM (inactive),,> 30 µM (inactive)
CNC(=O)c1cc(COc2nnc(Nc3ccc(Cl)cc3)c3ccoc23)ccn1 [TELATINIB],,,> 30 µM (inactive),> 30 µM (inactive),> 30 µM (inactive),> 30 µM (inactive),,> 30 µM (inactive)
COc1cc(F)c(F)c(Nc2ccc(I)cc2F)c1NS(=O)(=O)C1(C[C@H](O)CO)CC1 [REFAMETINIB],,,> 30 µM (inactive),> 30 µM (inactive),> 30 µM (inactive),> 30 µM (inactive),> 30 µM (inactive),
CN1CCN(c2nc(C3=C(c4c[nH]c5ccccc45)C(=O)NC3=O)c3ccccc3n2)CC1 [SOTRASTAURIN],> 30 µM (inactive),,0.041 µM (active),0.709 µM (active),> 30 µM (inactive),> 30 µM (inactive),,> 30 µM (inactive)
O[C@H]1CC[C@H](Nc2ncc3nc(Nc4c(F)cc(F)cc4F)n([C@H]4CCOC4)c3n2)CC1 [TANZISERTIB],> 30 µM (inactive),,> 30 µM (inactive),> 30 µM (inactive),> 30 µM (inactive),> 30 µM (inactive),,
CCc1nc(C(N)=O)c(Nc2ccc(N3CCC(N4CCN(C)CC4)CC3)c(OC)c2)nc1NC1CCOCC1 [GILTERITINIB],,,,> 30 µM (inactive),> 30 µM (inactive),> 30 µM (inactive),> 30 µM (inactive),
Cc1cc(-c2cc(OC(=O)c3ccccc3)ccc2Cl)cc2nnc(Nc3ccc(OCCN4CCCC4)cc3)nc12 [TG100-801],,,,> 30 µM (inactive),,> 30 µM (inactive),,> 30 µM (inactive)
FC(F)(F)c1ccc(CNc2ccc(Cc3c[nH]c4ncc(Cl)cc34)cn2)cn1 [PEXIDARTINIB],> 30 µM (inactive),,,> 30 µM (inactive),> 30 µM (inactive),> 30 µM (inactive),,
O=c1[nH]c([C@@H]2CCCN2)nc2c1oc1ccc(Cl)cc12,,,,8.79 µM,> 30 µM (inactive),> 30 µM (inactive),> 30 µM (inactive),
COCCN1CCN(Cc2ccc(-c3n[nH]c4c3C(=O)c3c(NC(=O)NN5CCOCC5)cccc3-4)cc2)CC1 [RGB-286638],> 30 µM (inactive),,,0.008 µM (active),> 30 µM (inactive),> 30 µM (inactive),,
CC[C@@](C)(Nc1ccnc(-c2c[nH]c3ncccc23)n1)C(=O)NCC(F)(F)F [DECERNOTINIB],,,,> 30 µM (inactive),> 30 µM (inactive),,> 30 µM (inactive),
Cc1ccc(C(=O)Nc2ccc(Oc3cc4cnn(C)c4cc3-c3cn[nH]c3)c(F)c2)c(=O)n1-c1ccc(F)cc1 [MERESTINIB],,> 30 µM (inactive),> 30 µM (inactive),> 30 µM (inactive),> 30 µM (inactive),> 30 µM (inactive),,> 30 µM (inactive)
c1cc(OCCN2CCCCC2)cc(-c2n[nH]c3ccc(-c4nc[nH]n4)cc23)c1 [CC-401],> 30 µM (inactive),,,,> 30 µM (inactive),> 30 µM (inactive),,
O=C(NOC[C@H](O)CO)c1ccc(F)c(F)c1Nc1ccc(I)cc1F [MIRDAMETINIB],> 30 µM (inactive),> 30 µM (inactive),> 30 µM (inactive),> 30 µM (inactive),> 30 µM (inactive),> 30 µM (inactive),,
S=C(NCc1ccc2c(c1)OCO2)N1CCN(c2ncnc3c2oc2ccccc23)CC1 [AMUVATINIB],> 30 µM (inactive),> 30 µM (inactive),> 30 µM (inactive),> 30 µM (inactive),,> 30 µM (inactive),,> 30 µM (inactive)
Cc1c(Cn2c(C)nc3c(C(=O)O)cc(N4CCOCC4)cc32)cccc1C(F)(F)F [GSK-2636771],,,,> 30 µM (inactive),> 30 µM (inactive),> 30 µM (inactive),,> 30 µM (inactive)
CCN(CCCOc1ccc2c(Nc3cc(CC(=O)Nc4cccc(F)c4)n[nH]3)ncnc2c1)CCOP(=O)(O)O [BARASERTIB],> 30 µM (inactive),,> 30 µM (inactive),,> 30 µM (inactive),,,
COc1ccc2c(OCc3nnc4ccc(-c5ccccc5)nn34)ccnc2c1 [AMG-208],> 30 µM (inactive),,,> 30 µM (inactive),> 30 µM (inactive),> 30 µM (inactive),,

# More lines, main results first:
Kd [2],Kd [3],Kd [4],Kd [5],Kd [6],Kd [7],Kd [8],Compound,Kd [1]
,,,> 30 µM (inactive),> 30 µM (inactive),> 30 µM (inactive),> 30 µM (inactive),Cn1c(=O)c(F)c(Nc2ccc(I)cc2F)c2c(=O)n(C[C@@H](O)CO)cnc21 [TAK-733],
,,,> 30 µM (inactive),> 30 µM (inactive),> 30 µM (inactive),> 30 µM (inactive),CC(C)(O)CC(=O)NCCn1ccc2ncnc(Nc3ccc(Oc4cccc(C(F)(F)F)c4)c(Cl)c3)c21 [TAK-285],
,,,> 30 µM (inactive),> 30 µM (inactive),> 30 µM (inactive),> 30 µM (inactive),COc1cc2ncnc3c2cc1OCCCCCN(C)Cc1ccc(Br)cc1N3 [JNJ-26483327],
> 30 µM (inactive),> 30 µM (inactive),> 30 µM (inactive),> 30 µM (inactive),> 30 µM (inactive),> 30 µM (inactive),,O=C(Nc1ccc(OC(F)(F)F)cc1)c1sccc1NCc1ccnc2ccccc12 [OSI-930],> 30 µM (inactive)
